The values that follow come from patent US8969568B2, “Substituted naphthyridines and their use as medicaments” (Boehringer Ingelheim Pharma GmbH & Co. KG, priority 2010, dated 2015).

Where only a bound is given, the exact number is not on record here.

In the assay the target is Recombinant human Syk (amino acids 342-635), GST-Syk kinase fusion protein (Homo sapiens (Human), UniProt P43405). Briefly: Syk Kinase Test (Kinase Glo luminescence). The settings on record: read-out: IC50-value, GST-Syk 4 nM final, ATP remaining, 60 minutes at room temperature. On the technique in general: Kinase-Glo reads ATP consumption through a luciferase reaction.
Experimental: The catalytic activity of the GST-Syk kinase fusion protein was determined using the Kinase Glo® Luminescence Kinase test (Promega; V6712). In this homogeneous test the amount of ATP remaining after the kinase reaction is quantified by a luciferin-luciferase reaction using luminescence. The luminescence signal obtained correlates with the amount of ATP still present and thus correlates inversely with the activity of the protein kinase.
GST-Syk was diluted to 6.0 nM in the test buffer and 10 μl of this dilution were used in the kinase test (final concentration of Syk=4 nM in a total volume of 15 μl).
Positive controls are the reaction mixtures that contain no test substance; negative controls (blanks) are reaction mixtures that contain no kinase.
After 60 minutes, 10 μl Kinase-Glo® solution (Promega, Cat. #V6712) (heated to room temperature) were added to each well and incubation was continued for a further 15 minutes. The plates were read in a Microplate Scintillation and Luminescence Counter (Canberra Packard GmbH).
Data Evaluation and Calculation:
The output file of the “Counter” is a text file that contains the well number and measured counts in two columns. […] Based on this values the % inherent value for the measurement of each substance concentration was calculated using an “MS-Excel—VB macro”. […] The IC50 values were calculated from the % inhibition values using “GraphPadPrism” software (Version 5) (GraphPad Software Inc.).
As a reminder, the IC50 is the midpoint of a concentration-inhibition curve. As to `COc1cc(-c2cc3ncccc3c(O[C@H](C)[C@H]3CNC(=O)C3)n2)cc(OC)c1OC` [Example 35, (R)-4-[(R)-1-[7-(3,4,5-Trimethoxy-phenyl)-[1,6]naphthyridin-5-yloxy]-ethyl]-pyrrolidin-2-one], the half-inhibitory concentration (IC50) came out at 0.2 nM.

As for `COc1cc(-c2cc3ncccc3c(OC[C@H]3CNC(=O)C3)n2)cc(OC)c1OC1CCOCC1` [Example 44], the IC50 was 16.1 nM.

On to `COc1cc(-c2cc3ncccc3c(O[C@H](C)[C@H]3CNC(=O)C3)n2)ccc1OC1CCOCC1` [Example 63], for which the IC50 was less than 0.1 nM.
